Reference: US12178808B2, “Amorphous solid dispersion comprising 6-(1-acryloylpiperidin-4-yl)-2-(4-phenoxyphenyl)nicotinamide” (BEIJING INNOCARE PHARMA TECH CO., LTD., priority 2018, dated 2024)
Values after ≈ are worked out from the molar mass of the structure shown.

How the values were obtained:
[1] = type: physicochemical; details: 24 h
[2] = Dissolution in fasted-state simulated intestinal fluid (FaSSIF); type: physicochemical
Experimental: 10 mg of accurately weighted samples of Type A and Type F, and 50 mg of HPMCAS-20-SDD (ASD with 20% drug loading made via spray-drying dispersion, see Example 3) were each added to 20 mL of fasted-state simulated intestinal fluid (FaSSIF) solution (pH 6.5) in a 50-mL centrifuge tube. The tube was placed in a shaker and kept shaking with 100 rpm at 37° C. At different time intervals (10, 30, 60, 120, 240 min), 350 μL suspension was removed and centrifuged at 13,000 rpm for 3 minutes to give a clear solution that was then analyzed by HPLC.
Samples of HPMCAS-20-SDD, HPMCAS-40-SDD, HPMCAS-60-SDD, PVPVA-20-HME were tested for dissolution according to the protocols of Example 5.

[3] = Glass transition temperature by DSC; type: physicochemical; details: DSC 0 to 180° C. at 10° C./min
Experimental: Accurately weighted samples (containing 5 mg of Compound I. see Table 3) were prepared according to the protocols of Examples 3 and 4, except varying the polymer and the drug amount. The examples were each placed in a DSC pan (TA Instruments), which was then sealed and placed in a TA Instruments Q2000. The pan was heated at 105° C. for 3 minutes and then rapidly cooled to 0° C. for 1 minute. The DSC analysis was carried out between 0 to 180° C. at a rate of 10° C./min.

[4] = Bioavailability of Type F crystalline form; details: in vivo
Text: Type F is a stable crystalline form and is useful as an active pharmaceutical ingredient (API) for a pharmaceutical formulation. However, its dissolution is slow and bioavailability is low (20%).

solubility [1] [µg/mL]	dissolution in FaSSIF (comparison) ([2]; FaSSIF pH 6.5, 37° C., 100 rpm, 10-240 min)	Tg [3] [°C]	dissolution ([2]; general statement on the crystalline form)	bioavailability [4] [%]	SMILES
13 (≈ 30.4 µM)	better than Type F's	69.4	–	–	C=CC(=O)N1CCC(c2ccc(C(N)=O)c(-c3ccc(Oc4ccccc4)cc3)n2)CC1 [Type A, 6-(1-acryloylpiperidin-4-yl)-2-(4-phenoxyphenyl)nicotinamide]
4 (≈ 9.36 µM)	–	–	slow	20	C=CC(=O)N1CCC(c2ccc(C(N)=O)c(-c3ccc(Oc4ccccc4)cc3)n2)CC1 [Type F, 6-(1-acryloylpiperidin-4-yl)-2-(4-phenoxyphenyl)nicotinamide]
